# Source: patent publication US20030162777A1, “Novel N-acylated heterocycles” (Recordati S.A., priority 2001, published 2003)
# Biological target: T1, human 5HT1A-serotonergic receptor (Homo sapiens, UniProt P08908)
# T1 construct: expressed in transfected cells; host or cells: HeLa (human cell line), stably transfected; cell membranes used
# T1 sequence (P08908 1-422): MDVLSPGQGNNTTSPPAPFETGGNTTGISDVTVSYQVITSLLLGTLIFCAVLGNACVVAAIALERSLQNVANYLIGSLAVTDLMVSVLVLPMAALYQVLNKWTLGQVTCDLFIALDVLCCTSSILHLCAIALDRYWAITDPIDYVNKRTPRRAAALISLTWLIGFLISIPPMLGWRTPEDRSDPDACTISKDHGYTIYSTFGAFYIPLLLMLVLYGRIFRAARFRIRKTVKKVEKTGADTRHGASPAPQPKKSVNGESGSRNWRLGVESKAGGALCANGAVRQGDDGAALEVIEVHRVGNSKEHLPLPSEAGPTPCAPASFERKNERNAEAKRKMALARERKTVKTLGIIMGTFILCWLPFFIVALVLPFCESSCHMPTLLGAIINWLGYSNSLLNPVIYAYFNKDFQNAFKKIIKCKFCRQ
# Assay: Radioligand binding to recombinant 5-HT1A receptors
# Settings: [3H]8-OH-DPAT 1 nM, membranes of HeLa cells with human 5-HT1A receptor; Ki from IC50 by Cheng & Prusoff; read-out: Binding affinity for 5HT1A receptors, Ki
# Method: Genomic clone G-21 coding for the human 5HT1A-serotonergic receptor was stably transfected in a human cell line (HeLa). HeLa cells were grown as monolayers in Dulbecco's modified Eagle medium (DMEM), containing 10% foetal bovine serum, gentamicin ([…]) and 5% carbon dioxide, at 37° C. The cells were detached from the growth flask at 95% confluence by a cell scraper and were lysed in cold 5 mM Tris and 5 mM EDTA buffer (pH 7.4). The homogenates were centrifuged at 40000×g×20 minutes and the pellets were resuspended in a small volume of cold 5 mM Tris and 5 mM EDTA buffer (pH 7.4) and immediately frozen and stored at −70° C. until use. On the day of experiment, the cell membranes were resuspended in incubation buffer: 50 mM Tris HCl (pH 7.4), 2.5 mM MgCl2, […] (Fargin et al., Nature 335, 358-360, 1988). The membranes were incubated in a final volume of 1 ml for 30 minutes at 30° C. with 1 nM [^3H]8-OH-DPAT, in the absence or presence of the test compounds. Non-specific binding was determined in the presence of 10 μM 5-HT. Incubation was stopped by addition of cold Tris-HC 1 buffer and rapid filtration through a 0.2%-polyethyleneimine-pretreated Whatman-GF/B or Schleicher-&-Schuell-GF52 filter.
# The affinity of the tested compounds was evaluated as inhibition of specific binding of the radioligand to 5-HT1A receptors (IC50) by using the non-linear curve-fitting program Allfit (De Lean et al., Am. J. Physiol. 235, E97-E102 (1978). The IC50 value was converted to an affinity constant (Ki) by the equation of Cheng & Prusoff (Cheng Y. C., Prusoff W. H., Biochem. Pharmacol. 22, 3099-3108 (1973)).
row,Compound,Ki [µM]
1,"1-(2-Cyclopropylacetyl-1,2,3,4-tetrahydroquinoline-2-ylmethyl)-4-(4-indolyl)piperazine [Example 68A11]",0.0068
2,"1-(2-Ethylbutanoyl-1,2,3,4-tetrahydroquinoline-2-ylmethyl)-4-(4-indolyl)piperazine [Example 24A]",0.0129
3,"1-(2-Furoyl-1,2,3,4-tetrahydroquinoline-2-ylmethyl)-4-(4-indolyl)piperazine [Example 68A13]",0.0053
4,"1-(4-Chloro-2-1-propoxyphenyl)-4-(1-cyclohexanecarbonyl-1,2,3,4-tetrahydroquinoline-2-ylmethyl)piperazine [Example 60A]",0.0101
5,"O=C(C1CCCCC1)N1c2ccccc2CCC1CN1CCCC(Cc2ccccc2)C1 (single isomer, unassigned) [Example 59, 3-Benzyl-1-(1-cyclohexanecarbonyl-1,2,3,4-tetrahydroquinoline-2-ylmethyl)piperidine]",0.0457
6,"C[C@@H](NC(=O)N1c2ccccc2CCC1CN1CCN(c2cccc3[nH]ccc23)CC1)c1ccccc1 (single isomer, unassigned) [Example 69A5]",0.0157
7,"O=C(C1CCCCC1)N1c2ccc(F)cc2CCC1CN1CCN(c2ccccc2OCC(F)(F)F)CC1 (stereo not shown) [Example 5, 1-(1-Cyclohexanecarbonyl-6-fluoro-1,2,3,4-tetrahydroquinoline-2-ylmethyl)-4-[2-(2,2,2-trifluoroethoxy)phenyl]piperazine]",0.0107
8,"COCCC(=O)N1c2ccccc2CCC1CN1CCN(c2ccccc2OCC(F)(F)F)CC1 (stereo not shown) [Example 7, 1-[1-(3-Methoxypropionyl)-1,2,3,4-tetrahydroquinoline-2-ylmethyl]-4-[2-(2,2,2-trifluoroethoxy)phenyl]piperazine]",0.0312
9,"COCCC(=O)N1c2ccccc2CCC1CN1CCN(c2cccc3[nH]ccc23)CC1 (stereo not shown) [Example 11, 1-[1-(3-Methoxypropionyl)-1,2,3,4-tetrahydroquinoline-2-ylmethyl]-4-(4-indolyl)piperazine]",0.0408
10,"CC(C)OCCC(=O)N1c2ccccc2CCC1CN1CCN(c2cccc3[nH]ccc23)CC1 (stereo not shown) [Example 12, 1-[1-(3-Isopropoxypropionyl)-1,2,3,4-tetrahydroquinoline-2-ylmethyl]-4-(4-indolyl)piperazine]",0.0475
11,"O=C(N1CCOCC1)N1c2ccccc2CCC1CN1CCN(c2cccc3[nH]ccc23)CC1 (stereo not shown) [Example 14, 1-[1-(4-Morpholinocarbonyl)-1,2,3,4-tetrahydroquinoline-2-ylmethyl]-4-(4-indolyl)piperazine]",0.082
12,"CCNC(=O)N1c2ccccc2CCC1CN1CCN(c2cccc3[nH]ccc23)CC1 (stereo not shown) [Example 20, 1-(1-Ethylaminocarbonyl-1,2,3,4-tetrahydroquinoline-2-ylmethyl)-4-(4-indolyl)piperazine]",0.0386
13,"O=C(C1CCCCC1)N1c2ccc(OC(F)(F)F)cc2CCC1CN1CCN(c2cccc3[nH]ccc23)CC1 (stereo not shown) [Example 26, 1-(1-Cyclohexanecarbonyl-6-trifluoromethoxy-1,2,3,4-tetrahydroquinoline-2-ylmethyl)-4-(4-indolyl)piperazine]",0.0479
14,"O=C(Nc1ccccc1)N1c2ccccc2CCC1CN1CCN(c2cccc3[nH]ccc23)CC1 (stereo not shown) [Example 31, 1-(4-Indolyl)-4-(1-phenylaminocarbonyl-1,2,3,4-tetrahydroquinoline-2-ylmethyl)piperazine]",0.0128
15,"O=C(N1CCCC1)N1c2ccccc2CCC1CN1CCN(c2cccc3[nH]ccc23)CC1 (stereo not shown) [Example 33, 1-(4-Indolyl)-4-(1-pyrrolidinecarbonyl-1,2,3,4-tetrahydroquinoline-2-ylmethyl)piperazine]",0.0477
16,"O=C(C1CCCCC1)N1c2ccc(Br)cc2CCC1CN1CCN(c2cccc3[nH]ccc23)CC1 (stereo not shown) [Example 34, 1-(6-Bromo-1-cyclohexanecarbonyl-1,2,3,4-tetrahydroquinoline-2-ylmethyl)-4-(4-indolyl)piperazine]",0.0189
17,"O=C(C1CCCCC1)N1c2ccccc2CCC1CN1CCN(c2ccc(Cl)cc2Cl)CC1 (stereo not shown) [Example 35A9, 1-(1-Cyclohexanecarbonyl-1,2,3,4-tetrahydroquinoline-2-ylmethyl)-4-(2,4-dichlorophenyl)piperazine]",0.0396
18,"O=C(C1CCCCC1)N1c2ccccc2CCC1CN1CCN(c2ncccn2)CC1 (stereo not shown) [Example 35A21, 1-(1-Cyclohexanecarbonyl-1,2,3,4-tetrahydroquinoline-2-ylmethyl)-4-(2-pyrimidinyl)piperazine]",0.0182
19,"COc1ccc(C#N)cc1N1CCN(CC2CCc3ccccc3N2C(=O)C2CCCCC2)CC1 (stereo not shown) [Example 35A24, 1-(5-Cyano-2-methoxyphenyl)-4-(1-cyclohexanecarbonyl-1,2,3,4-tetrahydroquinoline-2-ylmethyl)piperazine]",0.0116
20,"O=C(C1CCCCC1)N1c2ccccc2CCC1CN1CCN(Cc2ccccc2Br)CC1 (stereo not shown) [Example 35A29, 1-(2-Bromobenzyl)-4-(1-cyclohexanecarbonyl-1,2,3,4-tetrahydroquinoline-2-ylmethyl)piperazine]",0.0311

# Continued by falling Ki, values first:
row,Ki [µM],Compound
1,0.0103,"O=C(CCOCc1ccccc1)N1c2ccccc2CCC1CN1CCN(c2ccccc2OCC(F)(F)F)CC1 (stereo not shown) [Example 8, 1-[1-(3-Benzyloxypropionyl)-1,2,3,4-tetrahydroquinoline-2-ylmethyl]-4-[2-(2,2,2-trifluoroethoxy)phenyl]piperazine]"
2,0.0101,"CC(=O)n1ccc2c(N3CCN(CC4CCc5ccccc5N4C(=O)C4CCCCC4)CC3)cccc21 (stereo not shown) [Example 35A25, 1-(1-Acetyl-4-indolyl)-4-(1-cyclohexanecarbonyl-1,2,3,4-tetrahydroquinoline-2-ylmethyl)piperazine]"
3,0.0096,"O=C(CCOCc1ccccc1)N1c2ccccc2CCC1CN1CCN(c2cccc3[nH]ccc23)CC1 (stereo not shown) [Example 9, 1-[1-(3-Benzyloxypropionyl)-1,2,3,4-tetrahydroquinoline-2-ylmethyl]-4-(4-indolyl)piperazine]"
4,0.0095,"Cc1ccc(F)c(N2CCN(CC3CCc4ccccc4N3C(=O)C3CCCCC3)CC2)c1 (stereo not shown) [Example 35A12, 1-(1-Cyclohexanecarbonyl-1,2,3,4-tetrahydroquinoline-2-ylmethyl)-4-(2-fluoro-5-methylphenyl)piperazine]"
5,0.0093,"O=C(c1ccccc1)N1c2ccccc2CCC1CN1CCN(c2cccc3[nH]ccc23)CC1 (stereo not shown) [Example 24A4, 1-(1-Benzoyl-1,2,3,4-tetrahydroquinoline-2-ylmethyl)-4-(4-indolyl)piperazine]"
6,0.0089,"Cn1ccc2c(N3CCN(CC4CCc5ccccc5N4C(=O)C4CCCCC4)CC3)cccc21 (stereo not shown) [Example 15, 1-(1-Cyclohexanecarbonyl-1,2,3,4-tetrahydroquinoline-2-ylmethyl)-4-(1-methyl-4-indolyl)piperazine]"
7,0.0052,"O=C(C1CCCCC1)N1c2ccccc2CCC1CN1CCN(c2cc(Cl)ccc2Cl)CC1 (stereo not shown) [Example 35A19, 1-(1-Cyclohexanecarbonyl-1,2,3,4-tetrahydroquinoline-2-ylmethyl)-4-(2,5-dichlorophenyl)piperazine]"
8,0.0031,"N#Cc1ccc(Cl)cc1N1CCN(CC2CCc3ccccc3N2C(=O)C2CCCCC2)CC1 (stereo not shown) [Example 35A23, 1-(5-chloro-2-cyanophenyl)-4-(1-cyclohexanecarbonyl-1,2,3,4-tetrahydroquinoline-2-ylmethyl)piperazine]"
9,0.0031,"O=C(C1CCCCC1)N1c2ccccc2CCC1CN1CCN(c2cccc3cc[nH]c23)CC1 (stereo not shown) [Example 35A26, 1-(1-Cyclohexanecarbonyl-1,2,3,4-tetrahydroquinoline-2-ylmethyl)-4-(7-indolyl)piperazine]"
10,0.0028,"Cc1ccc2c(c1)CCC(CN1CCN(c3cccc4[nH]ccc34)CC1)N2C(=O)C1CCCCC1 (stereo not shown) [Example 32, 1-(1-Cyclohexanecarbonyl-6-methyl-1,2,3,4-tetrahydroquinoline-2-ylmethyl)-4-(4-indolyl)piperazine]"
11,0.0007,"O=C(C1CCCCC1)N1c2ccccc2CCC1CN1CCN(c2ccccc2OCC(F)(F)F)CC1 (stereo not shown) [Example 4, 1-(1-Cyclohexanecarbonyl-1,2,3,4-tetrahydroquinoline-2-ylmethyl)-4-[2-(2,2,2-trifluoroethoxy)phenyl]piperazine]"
